Measured values published in patent US20230293519A1, “INTEGRIN INHIBITORS AND USES THEREOF IN COMBINATION WITH OTHER AGENTS” (Pliant Therapeutics, Inc., priority 2021, published 2023).

Assays:
[1] = system: fibrosis-related gene expression in explanted human lung tissue from patients with idiopathic pulmonary fibrosis; assay: nCounter Fibrosis Panel gene expression in precision cut lung slices from IPF explants; type: cell-based; settings: IPF PCLS, 7 days, vs DMSO
Source text: Fibrosis-related gene expression in explanted human lung tissue from patients with idiopathic pulmonary fibrosis was examined in order to determine what impact combining Compound 5 treatment with standard-of-care drugs nintedanib or pirfenidone, has on the expression of such genes.
Samples used for this analysis are a subset (n = 4 of 7) of the lungs previously reported on in Decaris et al., Respir Res (2021) 22:265 (FIGS. 6 A and B). Briefly, tissue samples from patients with IPF were acquired at the time of lung transplantation. Precision cut lung slices were generated from the explants and cultured for 7 days in the presence of inhibitors (Compound 5, nintedanib, pirfenidone) at clinically relevant concentrations or vehicle (DMSO). Treated slices were lysed in mRNA-compatible buffer for gene expression analysis. For this study, the lysate from n = 6 slices per treatment per lung were pooled for analysis using the nCounter Fibrosis Panel (Nanostring) on the nCounter Max analyzer (Nanostring). This commercially available panel of 770 genes includes genes related to initial tissue damage response, chronic inflammation, proliferation of pro-fibrotic cells, and tissue modification leading to fibrotic disease. Technical quality control and normalization of raw Nanostring mRNA count data was performed using an R framework developed by Bhattacharya et al. (Bhattacharya A. et al., Brief Bioinform. 2021 May 20;22(3):bbaa163). The R packages limma (see URL www.bioconductor.org/packages/release/bioc/html/limma.html) and voom (Law, C.W. et al., Genome Biol. 2014 Feb 3;15(2):R29) were used to detect differentially expressed genes. Benjamini-Hochberg False Discovery Rate (FDR = 5%) was used to adjust p-values for multiple comparisons.

[2] = system: IPF-derived human lung fibroblasts; assay: LAP adhesion assay (xCELLigence cell index), lung fibroblasts; type: cell-based; settings: IPF-derived lung fibroblasts (express αvβ1)
Description: Two latency associated peptide (LAP) adhesion binding assays were devised using primary human lung cells, including normal (healthy) human bronchial epithelial cells and human lung fibroblasts (healthy and IPF).
Human lung fibroblasts derived from normal and IPF lung tissue are known to express αvβ1 integrin. […] In the assay, the IPF-derived human lung fibroblasts were separately incubated with: the αvβ1-selective small molecule inhibitor; the selective antibody αvβ6 inhibitor, 3G9; and compound 5.

COCCN(CCCCc1ccc2c(n1)NCCC2)CC[C@H](Nc1ncnc2ccccc12)C(=O)O [Compound 5, (S)-4-((2-methoxyethyl)(4-(5,6,7,8-tetrahydro-1,8-naphthyridin-2-yl)butyl)amino)-2-(quinazolin-4-ylamino)butanoic acid]
% Reduction of APOC2 expression [1]: -1.20%
% Reduction of CDH2 expression [1]: 23.87%
% Reduction of COL1A1 expression [1]: 38.78%
% Reduction of COL4A2 expression [1]: 17.74%
% Reduction of COL5A3 expression [1]: 30.59%
% Reduction of FAP expression [1]: 37.30%
% Reduction of FCGR3A/B expression [1]: 28.54%
% Reduction of ITGAS expression [1]: 26.20%
% Reduction of ITGB3 expression [1]: -2.48%
% Reduction of LOX expression [1]: 39.38%
% Reduction of LOXL2 expression [1]: 15.32%
% Reduction of NID1 expression [1]: 19.25%
% Reduction of PDGFRB expression [1]: 37.29%
% Reduction of POSTN expression [1]: 48.61%
% Reduction of SERPINE1 expression [1]: 35.77%
% Reduction of SERPINH1 expression [1]: 22.68%
% Reduction of SPP1 expression [1]: -15.73%
% Reduction of TGFB1 expression [1]: 1.68%
% Reduction of THBS2 expression [1]: 31.47%
logFC of ALDH7A1 expression [1]: 0.57
logFC of APOA2 expression [1]: 0.6135
logFC of CCL13 expression [1]: 0.9445
logFC of CD19 expression [1]: 0.5301
logFC of CIITA expression [1]: 0.5895
logFC of COL1A2 expression [1]: -0.8062
logFC of COL3A1 expression [1]: -0.7449
logFC of COL5A1 expression [1]: -0.9282
logFC of COL6A3 expression [1]: -0.8313
logFC of COL10A1 expression [1]: -2.782
logFC of CXCL2 expression [1]: 0.7069
logFC of CXCR4 expression [1]: -0.7822
logFC of FAP expression [1]: -0.6735
logFC of FN1 expression [1]: -0.662
logFC of FZD5 expression [1]: 0.4466
logFC of GPC4 expression [1]: 0.486
logFC of GREM1 expression [1]: -0.8269
logFC of IFI6 expression [1]: 0.9391
logFC of IFI35 expression [1]: 0.4412
logFC of LOX expression [1]: -0.722
logFC of LOXL1 expression [1]: -0.6279
logFC of LTA expression [1]: 0.4994
logFC of MARCO expression [1]: -0.9183
logFC of MET expression [1]: 0.6707
logFC of MMP8 expression [1]: -0.8754
logFC of MMP11 expression [1]: -0.6749
logFC of NOS1 expression [1]: 0.6684
logFC of OAS1 expression [1]: 0.6104
logFC of PDGFRB expression [1]: -0.6732
logFC of PECAM1 expression [1]: -0.8251
logFC of PLPP4 expression [1]: -0.6364
logFC of POSTN expression [1]: -0.9604
logFC of PTGER4 expression [1]: 0.439
logFC of SERPINE1 expression [1]: -0.6387
logFC of SMAD3 expression [1]: 0.4528
logFC of TIMP1 expression [1]: -0.6101
logFC of TNF expression [1]: 0.4803
logFC of TTN expression [1]: 0.5832
logFC of WWC1 expression [1]: 0.5885
logFC of XAF1 expression [1]: 0.4529
inhibition of cell adhesion to LAP [2]: substantially inhibited
